The structures appear in SMILES notation.

The source of these data is US8927551B2, “Isoxazolines as inhibitors of fatty acid amide hydrolase” (Infinity Pharmaceuticals, Inc., priority 2009, dated 2015).

The target in this experiment is T1, human FAAH (Homo sapiens, UniProt O00519).
T1 construct: host or cells: COS-7 cells, transient transfection; 13,000 g membrane fraction solubilised in 1% Triton X-100
T1 sequence (O00519 1-579): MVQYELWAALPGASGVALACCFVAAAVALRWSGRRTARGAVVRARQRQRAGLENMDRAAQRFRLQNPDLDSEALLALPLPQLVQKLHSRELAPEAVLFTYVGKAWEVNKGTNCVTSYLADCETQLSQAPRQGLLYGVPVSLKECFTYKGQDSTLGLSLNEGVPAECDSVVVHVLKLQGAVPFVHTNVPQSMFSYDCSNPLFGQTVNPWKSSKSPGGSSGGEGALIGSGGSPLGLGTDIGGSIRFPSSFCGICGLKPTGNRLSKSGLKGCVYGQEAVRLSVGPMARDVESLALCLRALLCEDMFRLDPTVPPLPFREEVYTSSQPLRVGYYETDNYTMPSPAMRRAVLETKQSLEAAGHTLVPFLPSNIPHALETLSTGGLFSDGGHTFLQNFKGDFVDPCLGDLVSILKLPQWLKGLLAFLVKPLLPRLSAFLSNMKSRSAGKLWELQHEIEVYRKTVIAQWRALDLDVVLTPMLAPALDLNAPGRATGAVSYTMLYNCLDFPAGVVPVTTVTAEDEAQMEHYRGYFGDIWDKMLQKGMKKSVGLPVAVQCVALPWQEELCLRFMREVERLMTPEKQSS
The experiment in a line: Inhibition of human FAAH (fluorescence assay, AMC Arachidonoyl Amide substrate). The format is biochemical. The following applies: solubilized human FAAH from transfected COS-7 cells; 30 minutes preincubation; 20 μM AMC-Arachidonoyl substrate; 4 hours at room temperature. Here is the method: Human FAAH Preparation: COS-7 cells were split the day before, 1:5 into 150 mm×25 mm cell culture dishes (Corning Inc., Cat. No. 430599). Transient transfection took place at 30-40% confluency according to FuGENE 6 Transfection Reagent (Roche, Cat. No. 11814 443 001).
Transfection Procedure: The FuGENE transfection 6 reagent (45 uL) was added to 1410 μL of media (DMEM, serum free without pen/strep) in a 15 mL conical tube and incubated at room temp for 5 minutes, followed by the addition of FAAH plasmid DNA (15 μg) (OriGene Cat. No. TC119221, Genbank Accession No. NM 001441.1, 0.67 ug/uL) and a further incubation of 15 minutes at room temperature. The resulting solution was added into one dish of 30-40% confluent COS-7 cells in a drop-wise manner. The COS-7 cell dish was subsequently incubated for 48 hours. The cells are then harvested.
Harvest procedure: Media was aspirated from the dishes and the cells rinsed with 10 mL PBS. The PBS was removed and 3 mL of PBS added to the dish. The dish was scraped to resuspend the cells, and the subsequent cell suspension collected into a 15 mL conical tube. The cells were pelleted by centrifugation at 1200 rpm for 5 minutes in a bench top centrifuge. PBS was removed and the cell pellet snap frozen in liquid nitrogen and stored at −80° C.
COS-7 Cells—FAAH Purification: • (1) Fractionation: Frozen cell pellets from transient transfections were thawed on ice and resuspended in 12.5 mM Hepes pH 8.0, 100 mM NaCl, 1 mM EDTA (10 mL/0.2 g cell pellet). The pellets were dounce homogenized and then sonicated to produce cell extract. The cell extract was subsequently centrifuged at 1000 g to remove cellular debris. The pellet was discarded and the supernatant centrifuged at 13,000 g for 20 minutes. The pellet contained membrane bound FAAH. The supernatant was discarded and the pellet resolubilized. • (2) Re-solubilization: The fraction of interest, (13,000 g, membrane fraction) was re-suspended in 2.3 mL re-suspension buffer (20 mM Hepes pH 7.8, 10% v/v Glycerol, 1 mM EDTA, 1% Triton X-100) and the sample incubated on ice for 1 hour and then centrifuged to remove any particulate matter. The supernatant containing solubilized human FAAH was aliquoted and snap frozen in liquid nitrogen and stored at −80° C. until use. • (3) Characterization: Protein Concentration determined by Bradford assay. • SDS gel and Western blot to confirm presence of FAAH • FAAH activity assay • Km determination—96-well assay • Linear dependence—96-well assay • Standard compound Ki determination—384-well assay
Human FAAH assay; Experimental Protocol: A 0.1 mg/mL Human FAAH solution was made up in FAAH reaction buffer, and 24 ul pipeted into a 384 well plate. To this was added 1 μL of a 3 fold serially diluted inhibitor from a DMSO stock solution. The FAAH solution and inhibitor were incubated for 30 minutes at room temperature. The FAAH reaction was initiated by the addition of 25 μL of 40 μM AMC Arachidonoyl Amide in FAAH reaction buffer, yielding a final reaction human FAAH preparation concentration of 0.05 mg/ml and AMC-Arachidonoyl substrate concentration of 20 μM, reaction volume 50 μL. The reaction was allowed to proceed for 4 hours at room temperature. The reaction was stopped by the addition of 25 μL 12 μM a-ketoheterocycle (Cayman Chemicals, catalogue # 10435). The microtiter plate was read in the envision plate reader.
The raw fluorescence was plotted on the y axis and the inhibitor concentration on the x axis to give a dose response inhibition curve. The data was fitted to a single site competitive inhibition equation, fixing the Km for the human enzyme to 12 μM and 9 μM respectively.
In general, Ki refers to a dissociation constant, usually derived from enzyme kinetics or from competition with a known ligand. Low values mean tighter binding, high ones weaker binding. As to `BrC1=NO[C@@H](c2ccncc2)C1` [II-1a], the Ki is at least 1000 nM.
As to `BrC1=NO[C@H](c2ccncc2)C1` [II-1b], the Ki was at least 1000 nM.
`BrC1=NO[C@@H](c2cccnc2)C1` [II-2a] gave a Ki of at least 1000 nM.
As for `BrC1=NO[C@H](c2cccnc2)C1` [II-2b], the figure is at least 1000 nM.
Compound `BrC1=NO[C@@H](c2ccccn2)C1` [II-3a] had a Ki of at least 1000 nM.
As for `BrC1=NO[C@H](c2ccccn2)C1` [II-3b], the figure is at least 1000 nM.
`BrC1=NO[C@H](c2cnn(-c3ccccc3)c2)C1` [II-4-b] showed a Ki of 100 to 1000 nM.
`BrC1=NO[C@@H](c2cnn(-c3ccccc3)c2)C1` [II-4a] yielded a Ki of 100 to 1000 nM.
`BrC1=NO[C@@H](c2csc(-c3ccccc3)n2)C1` [II-5a]: the Ki is at least 1000 nM.
`BrC1=NO[C@H](c2csc(-c3ccccc3)n2)C1` [II-5b] had a Ki of at least 1000 nM.
In turn, `BrC1=NO[C@@H](c2cnc(-c3ccccc3)s2)C1` [II-6a] came in with a Ki of at most 100 nM.
Turning to `BrC1=NO[C@H](c2cnc(-c3ccccc3)s2)C1` [II-6b], the Ki is at most 100 nM.
Compound `BrC1=NO[C@@H](c2ccc(-c3ccccc3)s2)C1` [II-7a] came in with a Ki of at most 100 nM.
In turn, `BrC1=NO[C@H](c2ccc(-c3ccccc3)s2)C1` [II-7b] registered a Ki of at most 100 nM.
The compound `BrC1=NO[C@@H](c2cc(-c3ccccc3)cs2)C1` [II-8a] displayed a Ki of at most 100 nM.
Take `BrC1=NO[C@H](c2cc(-c3ccccc3)cs2)C1` [II-8b]: the inhibition constant (Ki) is at most 100 nM.
`BrC1=NO[C@@H](c2ccc3ncccc3c2)C1` [II-9a] gave a Ki of at most 100 nM.
Take `BrC1=NO[C@H](c2ccc3ncccc3c2)C1` [II-9b]: the Ki is at most 100 nM.
With `BrC1=NO[C@@H](c2cnc3ccccc3c2)C1` [II-10a], the Ki was at most 100 nM.
Compound `BrC1=NO[C@H](c2cnc3ccccc3c2)C1` [II-10b] registered a Ki of at most 100 nM.
On to `BrC1=NO[C@@H](c2ccc3nccnc3c2)C1` [II-11a], for which the Ki was at most 100 nM.
As for `BrC1=NO[C@H](c2ccc3nccnc3c2)C1` [II-11b], the Ki is at most 100 nM.
As to `CC(C)(C)OC(=O)Nc1nc2ccc([C@H]3CC(Br)=NO3)cc2s1` [II-13a], the Ki is 100 to 1000 nM.
In the case of `CC(C)(C)OC(=O)Nc1nc2ccc([C@@H]3CC(Br)=NO3)cc2s1` [II-13b] it was 100 to 1000 nM.
As for `CC(C)(C)OC(=O)N1CCN(C[C@H]2CC(Br)=NO2)CC1` [II-14a], the figure is at most 100 nM.
As for `CC(C)(C)OC(=O)N1CCN(C[C@@H]2CC(Br)=NO2)CC1` [II-14b], the figure is at most 100 nM; as for `O=C(OCc1ccccc1)N1CCC([C@H]2CC(Br)=NO2)CC1` [II-15a], 100 to 1000 nM; as for `O=C(OCc1ccccc1)N1CCC([C@@H]2CC(Br)=NO2)CC1` [II-15b], 100 to 1000 nM.
Turning to `CC(C)(C)OC(=O)N1CCC([C@H]2CC(Br)=NO2)CC1` [II-16a], the Ki was at most 100 nM.
In the case of `CC(C)(C)OC(=O)N1CCC([C@@H]2CC(Br)=NO2)CC1` [II-16b] it was at most 100 nM.
In the case of `Clc1ccc(-c2ncc([C@H]3CC(Br)=NO3)s2)cc1` [II-17a] it was at most 100 nM; in that of `Clc1ccc(-c2ncc([C@@H]3CC(Br)=NO3)s2)cc1` [II-17b], at most 100 nM; in that of `C[C@]1(c2cnc(-c3ccccc3)s2)CC(Br)=NO1` [II-18a], at most 100 nM.
For the compound `C[C@@]1(c2cnc(-c3ccccc3)s2)CC(Br)=NO1` [II-18b], the Ki is at most 100 nM.
`C[C@H]1C(Br)=NO[C@H]1c1cnc(-c2ccccc2)s1` [II-19a] showed a Ki of at most 100 nM.
In turn, `C[C@@H]1C(Br)=NO[C@@H]1c1cnc(-c2ccccc2)s1` [II-19b] yielded an inhibitory constant (Ki) of at most 100 nM.
Compound `C[C@@H]1C(Br)=NO[C@H]1c1cnc(-c2ccccc2)s1` [II-20a] gave a Ki of at least 1000 nM.
The compound `C[C@H]1C(Br)=NO[C@@H]1c1cnc(-c2ccccc2)s1` [II-20b] showed an inhibitory constant (Ki) of at least 1000 nM.
For `c1ccc(-c2ncc([C@H]3CC(Oc4cccnc4)=NO3)s2)cc1` [II-21a], the Ki was at most 100 nM.
Compound `c1ccc(-c2ncc([C@@H]3CC(Oc4cccnc4)=NO3)s2)cc1` [II-21b] had a Ki of at most 100 nM.
In the case of `C[C@]1(c2cnc(-c3ccccc3)s2)CC(Oc2cncnc2)=NO1` [II-22a] it was at most 100 nM; in that of `C[C@@]1(c2cnc(-c3ccccc3)s2)CC(Oc2cncnc2)=NO1` [II-22b], at most 100 nM; in that of `C[C@]1(c2cnc(-c3ccccc3)s2)CC(Oc2cccnc2)=NO1` [II-23a], at most 100 nM.
As to `C[C@@]1(c2cnc(-c3ccccc3)s2)CC(Oc2cccnc2)=NO1` [II-23b], the Ki is at most 100 nM.
On to `Cc1nc(-c2ccccc2)sc1[C@@]1(C)CC(Br)=NO1` [II-24a], for which the Ki fell in the range of 100 to 1000 nM.
The compound `Cc1nc(-c2ccccc2)sc1[C@]1(C)CC(Br)=NO1` [II-24b] displayed a Ki of 100 to 1000 nM.
Compound `BrC1=NO[C@@H](c2ccc(-c3cccnc3)s2)C1` [II-25a] showed a Ki of at most 100 nM.
As for `BrC1=NO[C@H](c2ccc(-c3cccnc3)s2)C1` [II-25b], the figure is at most 100 nM; as for `c1cncc(-c2ccc([C@H]3CC(Oc4cncnc4)=NO3)s2)c1` [II-26a], at most 100 nM; as for `c1cncc(-c2ccc([C@@H]3CC(Oc4cncnc4)=NO3)s2)c1` [II-26b], at most 100 nM.
As to `O=C(O)c1ccc(OC2=NO[C@@H](c3ccc(-c4cccnc4)s3)C2)cn1` [II-27a], the inhibitory constant (Ki) was at most 100 nM.
The compound `O=C(O)c1ccc(OC2=NO[C@H](c3ccc(-c4cccnc4)s3)C2)cn1` [II-27b] came in with a Ki of at most 100 nM.
In turn, `CS(=O)(=O)c1ccc(OC2=NO[C@@H](c3cnc(-c4ccccc4)s3)C2)cn1` [II-28a] registered a Ki of at most 100 nM.
`CS(=O)(=O)c1ccc(OC2=NO[C@H](c3cnc(-c4ccccc4)s3)C2)cn1` [II-28b] came in with a Ki of at most 100 nM.
With `C[C@]1(c2cnc(-c3ccccc3)s2)CC(Oc2ccc(S(C)(=O)=O)nc2)=NO1` [II-29a], the Ki was at most 100 nM.
In turn, `C[C@@]1(c2cnc(-c3ccccc3)s2)CC(Oc2ccc(S(C)(=O)=O)nc2)=NO1` [II-29b] gave a Ki of at most 100 nM.
On to `O[C@H](CNC1=NO[C@@H](c2cc(-c3ccccc3)cs2)C1)c1ccccc1` [II-30a], for which the Ki was at least 1000 nM.
The compound `O[C@@H](CNC1=NO[C@@H](c2cc(-c3ccccc3)cs2)C1)c1ccccc1` [II-31a] came in with a Ki of at least 1000 nM.
The compound `O[C@@H](CNC1=NO[C@H](c2cc(-c3ccccc3)cs2)C1)c1ccccc1` [II-31b] returned a Ki of at least 1000 nM.
